# Test results: PubChem BioAssay (NCI)
#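 Results reflect a 48-hour exposure of cells in 96-well plates to compound at five concentrations. GI50 = concentration required for 50% inhibition of growth. TGI denotes the concentration required for complete inhibition of growth.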
# What was measured:
# Assay in all cases: NCI tumour cell line growth inhibition, 48 h
# SK-OV-3 ovarian = system: SK-OV-3 ovarian
# MALME-3M melanoma = system: MALME-3M melanoma
# MDA-MB-435 = system: MDA-MB-435
# NCI-H226 lung = system: NCI-H226 lung
# A498 renal = system: A498 renal
# UACC-257 melanoma = system: UACC-257 melanoma
# DU-145 prostate = system: DU-145 prostate
# KM12 colon = system: KM12 colon
# COLO 205 colon = system: COLO 205 colon
# SF-295 CNS = system: SF-295 CNS
# NCI-H522 lung = system: NCI-H522 lung
# SW-620 colon = system: SW-620 colon
# NCI-H23 lung = system: NCI-H23 lung
# SR leukemia = system: SR leukemia
# SF-268 CNS = system: SF-268 CNS
# IGROV1 ovarian = system: IGROV1 ovarian
# ACHN renal = system: ACHN renal
# HS 578T breast = system: HS 578T breast
# T-47D breast = system: T-47D breast
# SNB-75 CNS = system: SNB-75 CNS
# RXF 393 renal = system: RXF 393 renal
# SK-MEL-28 melanoma = system: SK-MEL-28 melanoma
# HCT-116 colon = system: HCT-116 colon
# MDA-MB-468 breast = system: MDA-MB-468 breast
# UO-31 renal = system: UO-31 renal
# CCRF-CEM leukemia = system: CCRF-CEM leukemia
# EKVX NSCLC = system: EKVX NSCLC
# HL-60(TB) leukemia = system: HL-60(TB) leukemia
smiles,measurement,setting,value
Cc1noc2c(Cc3ccccc3)nn(CC(=O)N/N=C/c3ccc(Br)cc3)c(=O)c12,TGI,SK-OV-3 ovarian,9.49 µM
same,GI50,MALME-3M melanoma,14.5 µM
same,TGI,MALME-3M melanoma,44.3 µM
same,GI50,MDA-MB-435,> 100 µM
same,TGI,MDA-MB-435,> 100 µM
same,GI50,NCI-H226 lung,2.33 µM
same,TGI,NCI-H226 lung,6.11 µM
same,GI50,A498 renal,1.73 µM
same,TGI,A498 renal,3.34 µM
same,GI50,UACC-257 melanoma,> 100 µM
same,TGI,UACC-257 melanoma,> 100 µM
same,GI50,DU-145 prostate,76.2 µM
same,TGI,DU-145 prostate,> 100 µM
same,GI50,KM12 colon,> 100 µM
same,TGI,KM12 colon,> 100 µM
same,GI50,COLO 205 colon,7.46 µM
same,TGI,COLO 205 colon,> 100 µM
same,GI50,SF-295 CNS,5.79 µM
same,TGI,SF-295 CNS,21.1 µM
same,GI50,NCI-H522 lung,12.9 µM
same,TGI,NCI-H522 lung,88.1 µM
same,GI50,SW-620 colon,> 100 µM
same,TGI,SW-620 colon,> 100 µM
same,GI50,NCI-H23 lung,9.2 µM
same,TGI,NCI-H23 lung,41.3 µM
same,GI50,SR leukemia,14.7 µM
same,TGI,SR leukemia,> 100 µM
same,GI50,SF-268 CNS,22.8 µM
same,TGI,SF-268 CNS,> 100 µM
same,GI50,IGROV1 ovarian,13.5 µM
same,TGI,IGROV1 ovarian,38.7 µM
same,GI50,ACHN renal,2.71 µM
same,TGI,ACHN renal,6.91 µM
same,GI50,HS 578T breast,3.06 µM
same,TGI,HS 578T breast,17.7 µM
same,GI50,T-47D breast,1.96 µM
same,TGI,T-47D breast,5.46 µM
same,GI50,SNB-75 CNS,1.74 µM
same,TGI,SNB-75 CNS,6.96 µM
same,GI50,RXF 393 renal,3.04 µM
same,TGI,RXF 393 renal,12.6 µM
same,GI50,SK-MEL-28 melanoma,> 100 µM
same,TGI,SK-MEL-28 melanoma,> 100 µM
same,GI50,HCT-116 colon,3.31 µM
same,TGI,HCT-116 colon,17.7 µM
same,GI50,MDA-MB-468 breast,9.61 µM
same,TGI,MDA-MB-468 breast,35.9 µM
same,GI50,UO-31 renal,1.91 µM
same,TGI,UO-31 renal,4.67 µM
same,GI50,CCRF-CEM leukemia,30.5 µM
same,TGI,CCRF-CEM leukemia,> 100 µM
same,GI50,EKVX NSCLC,31.3 µM
same,TGI,EKVX NSCLC,> 100 µM
same,GI50,HL-60(TB) leukemia,> 100 µM
same,TGI,HL-60(TB) leukemia,> 100 µM
